# Assay results as given in patent US20150252049A1, “MGLU2/3 ANTAGONISTS FOR THE TREATMENT OF AUTISTIC DISORDERS” (Hoffmann-La Roche Inc., priority 2012, published 2015).
# Test system: BTBR T+tf/J (BTBR) mice
# Test: 3-Chambered Social Test (animal vs. object)
# Assay type: in vivo, mouse
# Details: male BTBR-T+/tfj mice, 3-10-30 mg/kg p.o. 3 hours before habituation; effect especially in the first 5 minutes at 10 mg/kg (FIG. 2/3)
# Protocol: Deficits in social interactions and social approach, unusual patterns of ultrasonic vocalization, and high levels of repetitive self-grooming are included.^20
# The 3-Chambered Social Test is used to assess autistic-like behaviors. Shortly after a period of habituation a mouse's sociability is determined by evaluating the amount of time the test mouse spends approaching a wire cage (holding cup) containing an unfamiliar mouse.
# 48 male mice BTBR-T+/tfj, 8-9 weeks old, were used in the experiments described herein in 4 groups n=12/group. Further, 6 male stimulus mice (unfamiliar BTBR T+tf/J mice) of similar age and weight were used.
# Low light of 20 Lux was used. With the doorways into the two side chambers closed, the test mouse was placed in the middle chamber and allowed to explore the apparatus for 10 min. Thereafter, the doorways were opened and the test mouse was allowed to explore the entire test box for 10 min. The cages were empty. The sociability test was conducted immediately following the habituation phase.
# While the test mouse was enclosed in the center compartment of the test box a stimulus mouse was enclosed in a wire cage (holding cup) in one side chamber. […] The amount of time spent and the number of entries into each chamber was measured, as was the time spent in a small perimeter around the cup holding the stimulus mouse. […]
compound,measurement,value
CCC(=O)NS(=O)(=O)c1cccc(-c2cccc(-c3cc(-c4ccc(C(F)(F)F)cc4)cc(C)n3)n2)c1 [IIb],"social preference (duration in the chamber, duration sniffing)",increased social preference
